Results as given in PubChem BioAssay (NCI).
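Each compound was tested at five concentrations against cells in 96-well plates for 48 hours. Abbreviation: GI50, concentration required for 50% inhibition of growth. TGI marks complete inhibition of growth.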

Columns and labels:
Experiment in all cases: growth of human tumour cells (NCI), 48 h
786-0 renal = system: 786-0 renal
A498 renal = system: A498 renal
A549 NSCLC = system: A549 NSCLC
ACHN renal = system: ACHN renal
BT-549 breast = system: BT-549 breast
CCRF-CEM leukemia = system: CCRF-CEM leukemia
COLO 205 colon = system: COLO 205 colon
DU-145 prostate = system: DU-145 prostate
HCC-2998 colon = system: HCC-2998 colon
HCT-116 colon = system: HCT-116 colon
HCT-15 colon = system: HCT-15 colon
HL-60(TB) leukemia = system: HL-60(TB) leukemia
HOP-92 NSCLC = system: HOP-92 NSCLC
HS 578T breast = system: HS 578T breast
HT29 colon = system: HT29 colon
IGROV1 ovarian = system: IGROV1 ovarian
KM12 colon = system: KM12 colon
LOX IMVI melanoma = system: LOX IMVI melanoma
M14 melanoma = system: M14 melanoma
MALME-3M melanoma = system: MALME-3M melanoma
MCF7 breast = system: MCF7 breast
MDA-MB-231 breast = system: MDA-MB-231 breast
MDA-MB-435 = system: MDA-MB-435
MOLT-4 leukemia = system: MOLT-4 leukemia
NCI-H226 lung = system: NCI-H226 lung
NCI-H23 lung = system: NCI-H23 lung
NCI-H460 lung = system: NCI-H460 lung
NCI-H522 lung = system: NCI-H522 lung
OVCAR-4 ovarian = system: OVCAR-4 ovarian
OVCAR-5 ovarian = system: OVCAR-5 ovarian
OVCAR-8 ovarian = system: OVCAR-8 ovarian
PC-3 prostate = system: PC-3 prostate
RPMI-8226 leukemia = system: RPMI-8226 leukemia
SF-268 CNS = system: SF-268 CNS
SF-295 CNS = system: SF-295 CNS
SF-539 CNS = system: SF-539 CNS
SK-MEL-28 melanoma = system: SK-MEL-28 melanoma
SK-MEL-5 melanoma = system: SK-MEL-5 melanoma
SK-OV-3 ovarian = system: SK-OV-3 ovarian
SN12C renal = system: SN12C renal
SNB-19 CNS = system: SNB-19 CNS
SR leukemia = system: SR leukemia
SW-620 colon = system: SW-620 colon
T-47D breast = system: T-47D breast
TK-10 renal = system: TK-10 renal
U251 CNS = system: U251 CNS
UACC-257 melanoma = system: UACC-257 melanoma
UACC-62 melanoma = system: UACC-62 melanoma
UO-31 renal = system: UO-31 renal
CAKI-1 renal = system: CAKI-1 renal
EKVX NSCLC = system: EKVX NSCLC
HOP-62 NSCLC = system: HOP-62 NSCLC
K-562 leukemia = system: K-562 leukemia
NCI/ADR-RES ovarian = system: NCI/ADR-RES ovarian
SK-MEL-2 melanoma = system: SK-MEL-2 melanoma

## O=C(Nc1cccc(-n2cc(-c3ccncc3)c(-c3ccc(O)c(Cl)c3)n2)c1)Nc1ccc(Cl)c(Cl)c1
786-0 renal
  GI50: 1.58 µM
  TGI: 7.12 µM
A498 renal
  GI50: 1.95 µM
  TGI: 7.01 µM
A549 NSCLC
  GI50: 1.54 µM
  TGI: 7.27 µM
ACHN renal
  GI50: 2.02 µM
  TGI: 7.81 µM
BT-549 breast
  GI50: 1.8 µM
  TGI: 4.32 µM
CCRF-CEM leukemia
  GI50: 1.39 µM
  TGI: 5.73 µM
COLO 205 colon
  GI50: 2.5 µM
  TGI: 6.23 µM
DU-145 prostate
  GI50: 2.39 µM
  TGI: 12.1 µM
HCC-2998 colon
  GI50: 3.65 µM
  TGI: > 100 µM
HCT-116 colon
  GI50: 1.83 µM
  TGI: 5.33 µM
HCT-15 colon
  GI50: 1.63 µM
  TGI: 8.52 µM
HL-60(TB) leukemia
  GI50: 2.71 µM
  TGI: 7.02 µM
HOP-92 NSCLC
  GI50: 0.763 µM
  TGI: 3.38 µM
HS 578T breast
  GI50: 1.4 µM
  TGI: 7.1 µM
HT29 colon
  GI50: 3.42 µM
  TGI: 39 µM
IGROV1 ovarian
  GI50: 2.35 µM
  TGI: 6.78 µM
KM12 colon
  GI50: 1.4 µM
  TGI: 3.11 µM
LOX IMVI melanoma
  GI50: 1.38 µM
  TGI: 5.06 µM
M14 melanoma
  GI50: 1.59 µM
  TGI: 3.79 µM
MALME-3M melanoma
  GI50: 2.11 µM
  TGI: 6.86 µM
MCF7 breast
  GI50: 1.88 µM
  TGI: 5.23 µM
MDA-MB-231 breast
  GI50: 1.85 µM
  TGI: > 100 µM
MDA-MB-435
  GI50: 1.96 µM
  TGI: 5.92 µM
MOLT-4 leukemia
  GI50: 1.43 µM
  TGI: 4.52 µM
NCI-H226 lung
  GI50: 3.01 µM
  TGI: 9.53 µM
NCI-H23 lung
  GI50: 1.88 µM
  TGI: 6.62 µM
NCI-H460 lung
  GI50: 2.22 µM
  TGI: 12.4 µM
NCI-H522 lung
  GI50: 1.3 µM
  TGI: 3.76 µM
OVCAR-4 ovarian
  GI50: 2.4 µM
  TGI: 9.5 µM
OVCAR-5 ovarian
  GI50: 3.26 µM
  TGI: 55.9 µM
OVCAR-8 ovarian
  GI50: 1.65 µM
  TGI: 5.61 µM
PC-3 prostate
  GI50: 2.07 µM
  TGI: 7.45 µM
RPMI-8226 leukemia
  GI50: 1.49 µM
  TGI: 4.54 µM
SF-268 CNS
  GI50: 2.65 µM
  TGI: 16.6 µM
SF-295 CNS
  GI50: 2.29 µM
  TGI: 7.27 µM
SF-539 CNS
  GI50: 1.57 µM
  TGI: 4.87 µM
SK-MEL-28 melanoma
  GI50: 1.8 µM
  TGI: 6.58 µM
SK-MEL-5 melanoma
  GI50: 1.56 µM
  TGI: 2.99 µM
SK-OV-3 ovarian
  GI50: 3.43 µM
  TGI: > 100 µM
SN12C renal
  GI50: 2.72 µM
  TGI: > 100 µM
SNB-19 CNS
  GI50: 3.06 µM
  TGI: > 100 µM
SR leukemia
  GI50: 0.43 µM
  TGI: 2.75 µM
SW-620 colon
  GI50: 2.63 µM
  TGI: 7.32 µM
T-47D breast
  GI50: 1.84 µM
  TGI: 6.41 µM
TK-10 renal
  GI50: 2.83 µM
  TGI: 7.56 µM
U251 CNS
  GI50: 1.25 µM
  TGI: 5.61 µM
UACC-257 melanoma
  GI50: 2.02 µM
  TGI: 5.13 µM
UACC-62 melanoma
  GI50: 1.99 µM
  TGI: 4.94 µM
UO-31 renal
  GI50: 2.67 µM
  TGI: 8.34 µM

## Nc1c(C(=O)c2ccccc2)nnc2ccccc12
786-0 renal
  TGI: > 100 µM
A549 NSCLC
  TGI: > 100 µM
ACHN renal
  TGI: 65.4 µM
BT-549 breast
  TGI: 72.7 µM
CAKI-1 renal
  TGI: > 100 µM
COLO 205 colon
  TGI: 36 µM
DU-145 prostate
  TGI: 69.9 µM
EKVX NSCLC
  TGI: > 100 µM
HCC-2998 colon
  TGI: 54.4 µM
HCT-116 colon
  TGI: 71.6 µM
HCT-15 colon
  TGI: > 100 µM
HOP-62 NSCLC
  TGI: > 100 µM
HOP-92 NSCLC
  TGI: 48.7 µM
HT29 colon
  TGI: > 100 µM
IGROV1 ovarian
  TGI: > 100 µM
K-562 leukemia
  TGI: > 100 µM
KM12 colon
  TGI: 67.7 µM
LOX IMVI melanoma
  TGI: > 100 µM
M14 melanoma
  TGI: > 100 µM
MALME-3M melanoma
  TGI: 79.1 µM
MCF7 breast
  TGI: 62.6 µM
MDA-MB-231 breast
  TGI: 53.3 µM
MDA-MB-435
  TGI: 60.3 µM
MOLT-4 leukemia
  TGI: > 100 µM
NCI-H226 lung
  TGI: > 100 µM
NCI-H23 lung
  TGI: > 100 µM
NCI-H460 lung
  TGI: 67.1 µM
NCI/ADR-RES ovarian
  TGI: 64.6 µM
OVCAR-4 ovarian
  TGI: > 100 µM
OVCAR-5 ovarian
  TGI: > 100 µM
OVCAR-8 ovarian
  TGI: > 100 µM
PC-3 prostate
  TGI: 59.6 µM
RPMI-8226 leukemia
  TGI: > 100 µM
SF-268 CNS
  TGI: > 100 µM
SF-539 CNS
  TGI: 87.3 µM
SK-MEL-2 melanoma
  TGI: 38.3 µM
SK-MEL-28 melanoma
  TGI: > 100 µM
SK-MEL-5 melanoma
  TGI: 32.7 µM
SNB-19 CNS
  TGI: > 100 µM
SR leukemia
  TGI: > 100 µM
SW-620 colon
  TGI: > 100 µM
TK-10 renal
  TGI: 54.7 µM
U251 CNS
  TGI: > 100 µM
UACC-257 melanoma
  TGI: 90.8 µM
UACC-62 melanoma
  TGI: 45 µM
UO-31 renal
  TGI: > 100 µM
